Assay results from US12409206B2, “Use of cyclosporine analogues for treating fibrosis” (Hepion Pharmaceuticals, Inc., priority 2020, dated 2025).

How the values were obtained:
[1] = test system: Human Lung Fibroblasts from a Patient with Idiopathic Pulmonary Fibrosis (IPF); assay: Procollagen and fibronectin ELISA of spent medium, IPF lung fibroblast culture; assay type: cell-based; settings: 6 days, both in the absence or presence of 0.4 ng/ml TGFβ
Experimental: (§1) Human Lung Fibroblasts from a Patient with Idiopathic Pulmonary Fibrosis (IPF) (Lonza Bioscience, Cat. #CC-7231) were cultured in 96-well plates. Treatments were applied in triplicate wells (applied 100 ul treatments per well) for 6 days. Cells were near confluence at the start of treatments. […] Spent culture medium collected at the end of the treatments was assayed for procollagen and fibronectin by enzyme-linked immunosorbent assays (ELISA) (Procollagen ELISA antibody pair (ab216064) and fibronectin ELISA antibody pair (ab222262) from Abcam). Procollagen and fibronectin were not detected in medium not applied to cells. Procollagen and fibronectin levels in the medium are represented by means±SD (bars) from 3 replicate wells (open circles).

[2] = test system: Human cardiac fibroblasts; assay: Cell viability analysis, cardiac fibroblast culture; assay type: cell-based; settings: end of treatment (6 days)
Experimental: as §1, with “cardiac fibroblasts” for “Lung Fibroblasts from a Patient with Idiopathic Pulmonary Fibrosis (IPF)”, “#CC-2903)” for “#CC-7231)”, “of” for “of the”

[3] = test system: five different types of fibroblasts; assay: ECM production (procollagen, fibronectin ELISA), summary over five types of fibroblasts; assay type: cell-based, Human; settings: dose-dependent; at clinically relevant concentrations
Source text: In the present example, five different types of fibroblasts, including (1) lung fibroblasts from a patient with idiopathic pulmonary fibrosis (“IPF”), (2) cardiac fibroblasts, (3) dermal (skin) fibroblasts, (4) renal mesangial cells, and (5) the LX2 hepatic stellate cell line, were used to determine the ability of CRV431 in decreasing production of the ECM molecules, collagen and fibronectin.
The extent of inhibition was similar whether or not the cells were stimulated with the profibrotic agent, transforming growth factor-beta (TGFβ), consistent with direct effects on ECM synthesis.

[4] = test system: mouse unilateral ureteral obstruction (UUO) model of kidney fibrosis; assay: Mouse unilateral ureteral obstruction (UUO) model of kidney fibrosis, Sirius red; assay type: in vivo, C57BL/6 mice; settings: 50 mg/kg/day daily oral gavage for 13 days; vs vehicle; per-section and per-animal; one-way ANOVA with Tukey
Experimental: This example describes a study conducted in the mouse unilateral ureteral obstruction (UUO) model of kidney fibrosis. Seven-week-old female C57BL/6 mice were used in this study (n=8 mice per group). Sham group mice received no UUO. The remaining mice underwent complete surgical ligation of the left ureter. Vehicle and CRV431 at 50 mg/kg/day were administered by daily oral gavage for 13 days starting on the day of surgery. Mice were sacrificed on Day 14, and left kidneys were processed histologically and stained for fibrotic collagen with Sirius red. The percentage of each histological section with Sirius red staining was measured morphometrically in 5 sections from each kidney. Results are shown in FIG. 7A (showing Sirius red in individual tissue sections) and 7B (showing Sirius red in individual mice (5 tissue sections per mouse)).

[5] = test system: human precision cut liver slices (PCLS); assay: PCLS gene expression by RT-PCR; assay type: cell-based
Experimental: PCLS were obtained from 5 human donors who underwent resection of liver cancer. Replicate slices were collected from healthy margins of the resections and cultured for 4 or 6 days depending on the experimental protocol. In the Nonstimulation Protocol slices were cultured for 6 days and treated for the entire period with DMSO vehicle or 5 μM CRV431. In the Stimulation Protocol slices were rested for 1 day and then administered the cytokines, TGFβ and PDGF-BB, for 3 days to stimulate inflammation and fibrosis. DMSO vehicle, CRV431 (1 and 5 μM), Alk5i (10 μM), obeticholic acid (5 μM), elafibranor (5 μM), resmetirom ([…]), and Aramchol (5 μM) were administered individually as drug treatments in the Stimulation Protocol concurrent with TGFβ+PDGF-BB. Culture medium treatments were replaced daily.
Four types of evaluations were conducted on the PCLS: (a) secretion of inflammation and fibrosis biomarkers into the culture medium, (b) histological staining and quantitation of Sirius red as a measure of tissue fibrosis, (c) gene expression of inflammation and fibrosis biomarkers by RT-PCR, and (d) RNA sequencing (RNA-Seq) of the complete transcriptome. Each of the four types of evaluation is described below: • (a) Biomarker secretion. Spent culture medium was collected daily from duplicate slices for each treatment. ELISAs were used to quantify secretion of monocyte chemoattractant protein (MCP-1), interleukin-6 (IL-6), tissue inhibitor of metalloproteinase-1 (TIMP1), hyaluronic acid, fibronectin, and collagen 1α1. For each donor the mean level of biomarker secretion in each treatment group was expressed as a percentage change relative to DMSO vehicle, the percentages averaged for all donors, and finally the mean daily percentage change calculated from all days of evaluation. […] Sirius red was quantified morphometrically in the histological sections as the percentage area with Sirius red staining in 10 sections from each treatment. In the Nonstimulation Protocol the quantity of Sirius red staining was expressed relative to the vehicle group. In the Stimulation Protocol the quantity of Sirius red staining was expressed relative to nonstimulated PCLS (0%) and TGFβ+PDGF-BB-stimulated+vehicle PCLS (100%). […] RNA was isolated from duplicate liver slices per treatment at the end of the experiments and evaluated by RT-PCR for 5 markers of inflammation and fibrosis: MCP-1, IL-6, TIMP1, αSMA, and collagen 1α1. β actin was used as a reference gene to calculate relative levels of each target gene RNA. […] RNA sequencing of the complete transcriptome (30 million reads per sample) was conducted on vehicle and 5 μM CRV431 treatment groups from 3 donors both from the Nonstimulation and Stimulation Protocols. […]

[6] = test system: human precision cut liver slices (PCLS); assay: PCLS RNA-Seq, general statements (protocol not stated); assay type: cell-based
Experimental: PCLS were obtained from 5 human donors who underwent resection of liver cancer. Replicate slices were collected from healthy margins of the resections and cultured for 4 or 6 days depending on the experimental protocol. In the Nonstimulation Protocol slices were cultured for 6 days and treated for the entire period with DMSO vehicle or 5 μM CRV431. In the Stimulation Protocol slices were rested for 1 day and then administered the cytokines, TGFβ and PDGF-BB, for 3 days to stimulate inflammation and fibrosis. […]
Four types of evaluations were conducted on the PCLS: (a) secretion of inflammation and fibrosis biomarkers into the culture medium, (b) histological staining and quantitation of Sirius red as a measure of tissue fibrosis, (c) gene expression of inflammation and fibrosis biomarkers by RT-PCR, and (d) RNA sequencing (RNA-Seq) of the complete transcriptome. […] ELISAs were used to quantify secretion of monocyte chemoattractant protein (MCP-1), interleukin-6 (IL-6), tissue inhibitor of metalloproteinase-1 (TIMP1), hyaluronic acid, fibronectin, and collagen 1α1. For each donor the mean level of biomarker secretion in each treatment group was expressed as a percentage change relative to DMSO vehicle, the percentages averaged for all donors, and finally the mean daily percentage change calculated from all days of evaluation. […]

hepatitis B = settings: preclinical studies; cited from earlier work
HIV = settings: preclinical studies; cited from earlier work
liver = settings: a number of in vivo models; cited from earlier work

SMILES: CC[C@@H]1NC(=O)[C@H]([C@H](O)[C@H](C)CCCCCCNC(C)=O)N(C)C(=O)[C@H](C(C)C)N(C)C(=O)[C@H](CC(C)C)N(C)C(=O)[C@H](CC(C)C)N(C)C(=O)[C@@H](C)NC(=O)[C@H](C)NC(=O)[C@H](CC(C)C)N(C)C(=O)[C@H](C(C)C)NC(=O)[C@H](CC(C)C)N(C)C(=O)[C@@H](C)N(C)C1=O [CRV431]
- abundance of fibronectin in the medium [1]: dose-dependently decreased
- abundance of procollagen in the medium [1]: dose-dependently decreased
- cell viability [2]: none of the CRV431 treatments affected cell viability
- decrease of ECM production [3]: up to 55%
- Sirius red staining (fibrotic collagen) of left kidney [4]: statistically significant decrease
- gene expression of all markers ([5]; CRV431 applied at 5 μM, markers MCP-1, IL-6, TIMP1, αSMA, collagen 1α1): decreased
- RNA levels of collagen1α1, αSMA, TIMP1, IL-6, and MCP-1 ([5]; qRT-PCR): reductions in RNA levels
- expression of many fibrosis-related genes (more than 10 collagen genes, collagen hydroxylases and oxidases, ACTA2, VEGF, TIMPs) [6]: decreased expression
- anti-viral activity (hepatitis B): shows anti-viral activity
- anti-viral activity (HIV): shows anti-viral activity
- anti-fibrotic activity in the liver (liver): anti-fibrotic activity
